This note sets out measurements from publication PMC7272617 (Scientific Reports, 2020).

Converted amounts (≈) assume the structure as drawn. Where two headings read alike, the source gives them in different places. Where a SMILES comes first, the peptide text is derived from it. Bridges are numbered along the chain shown (N, C = ends). [ ]: non-standard residue; d: D form. The star is where a group is joined. X1 = CC[C@H](C)CCCCC(=O)*; Dab = NCC[C@H](N)C(=O)O

Assay [1] concerns Salmonella Typhimurium ATCC 13311. The conditions noted are these: ATCC 13311, 24 h.
The test system of assay [2] is Shigella sonnei ATCC 11060. Particulars: MHB, 37 °C, 24 h.
For assay [3], the system named is Bacillus cereus ATCC 11778. The conditions noted are these: ATCC 11778, 24 h.
The test system of assay [4] is Acinetobacter baumannii MT strain. Particulars: MT strain, 24 h.
Assay [5] relates to Pseudomonas aeruginosa ATCC 27853.
In assay [6] the test system is Enterococcus faecalis ATCC 29212. Particulars: ATCC 29212, 24 h.
The subject of assay [7] is Staphylococcus epidermidis ATCC 12228. Particulars: ATCC 12228, 24 h.
The test system of assay [8] is Vibrio cholera O1 Inaba DMST 16261. Particulars: MHB, 37 °C, 24 h.
Assay [9] has as its system Listeria monocytogenes 10403 s. The conditions noted are these: 10403 s, 24 h.
Assay [10] has as its system Escherichia coli O157:H7 MT strain. The conditions noted are these: E. coli O157:H7 MT strain; MHB, 37 °C, 24 h.
Assay [11] deals with all Gram-negative strains. Briefly: Mean MIC and therapeutic index, Gram-negative strains. Type of assay: cell-based. The conditions noted are these: 7 Gram-negative strains of Table 3. Here is the method:
(§1) The antimicrobial activity of the peptides was determined against both Gram-positive and -negative bacteria including 14 MDR P. aeruginosa clinical isolates from Bhumibol Adulyadej Hospital (Tables 1 and 3). The minimal inhibitory concentration (MIC) of each peptide was measured according to a modification of the National Committee for Clinical Laboratory Standards (NCCLS) broth microdilution method as previously described. Briefly, bacterial cells in mid-log phase were cultured in Müeller-Hinton broth (MHB) and then diluted to 10^7 CFU/ml. […] Plates were incubated at 37 °C for 24 h, and MICs were defined as the lowest concentration of peptide that prevented visible turbidity. Cultures without peptides and uninoculated MHB were employed as positive and negative controls, respectively. Colony count assays were performed to determine the minimal bactericidal concentrations (MBCs) for determination of time-killing activity. As previously described, a 50 μl aliquot from each non-turbid well identified in the MIC determination experiment was spread on agar plates.
(§2) To further evaluate the global activity of these peptides, the geometric mean (GM) MIC and the therapeutic index (TI) of each were calculated (Table 3). The TI, a widely used parameter to evaluate cell selectivity and specificity of antimicrobial agents, was calculated as the ratio of MHC (the concentration that causes 10% hemolysis) to the geometric mean of MICs[22]. Higher TIs indicated greater cell selectivity and specificity.

Assay [12] relates to Staphylococcus aureus ATCC 25923. The conditions noted are these: ATCC 25923, 24 h.
Assay [13] concerns Escherichia coli ATCC 25922. The conditions noted are these: ATCC 25922, 24 h.
Assay [14] deals with Gram-negative and -positive bacterial strains. Put plainly: MIC against the panel of Gram-negative and -positive bacterial strains. Type of assay: cell-based. Particulars: 12 strains of Table 3; result in words.
For assay [15], the system named is all Gram-positive strains. Put plainly: Mean MIC and therapeutic index, Gram-positive strains. Type of assay: cell-based. Particulars: 5 Gram-positive strains of Table 3. As to the method:
as §1, §2

Assay [16] has as its system MDR P. aeruginosa clinical isolate No.10. Particulars: MDR P. aeruginosa clinical isolate No.10.
Assay [17] has as its system MDR P. aeruginosa clinical isolate No.13. Particulars: MDR P. aeruginosa clinical isolate No.13.
The subject of assay [18] is MDR P. aeruginosa clinical isolate No.1.
The subject of assay [19] is MDR P. aeruginosa clinical isolate No.2. The conditions noted are these: MDR P. aeruginosa clinical isolate No.2.
Assay [20] concerns MDR P. aeruginosa clinical isolate No.5. The conditions noted are these: MDR P. aeruginosa clinical isolate No.5.
In assay [21] the test system is MDR P. aeruginosa clinical isolate No.12.
The subject of assay [22] is MDR P. aeruginosa clinical isolate No.14. Particulars: MDR P. aeruginosa clinical isolate No.14.
Assay [23] relates to MDR P. aeruginosa clinical isolate No.7. The conditions noted are these: MDR P. aeruginosa clinical isolate No.7.
The subject of assay [24] is MDR P. aeruginosa clinical isolate No.8. The conditions noted are these: MDR P. aeruginosa clinical isolate No.8.
The test system of assay [25] is MDR P. aeruginosa clinical isolate No.9. Particulars: MDR P. aeruginosa clinical isolate No.9.
Assay [26] concerns MDR P. aeruginosa clinical isolate No.4. Particulars: MDR P. aeruginosa clinical isolate No.4.
Assay [27] deals with MDR P. aeruginosa clinical isolate No.11. Particulars: MDR P. aeruginosa clinical isolate No.11.
The test system of assay [28] is MDR P. aeruginosa clinical isolate No.3. Particulars: MDR P. aeruginosa clinical isolate No.3.
The test system of assay [29] is MDR P. aeruginosa clinical isolate No.6. Particulars: MDR P. aeruginosa clinical isolate No.6.
Setting [30] is: P. aeruginosa ATCC 27853, MHB, 10^7 CFU/ml, 37 °C, 24 h, no visible turbidity.

For `CC[C@H](C)[C@H](NC(=O)[C@H](CC(=O)O)NC(=O)[C@H](Cc1ccccc1)NC(=O)[C@H](CC(C)C)NC(=O)CN)C(=O)N[C@H](C(=O)N[C@@H](CCCCN)C(=O)N[C@@H](CCCCN)C(=O)N[C@H](C(=O)N[C@@H](C)C(=O)NCC(N)=O)C(C)C)C(C)C` [A0] (H-GLFDIVKKVAG-NH2; N-terminus assumed), the MIC in [1] is over 250 µg/mL; in assay [2], over 250 µg/mL; in [3] it was over 250 µg/mL; in [4] it was over 250 µg/mL; in [5] (ATCC 27853, 24 h), over 250 µg/mL; in assay [6], over 250 µg/mL. Also, the MIC in assay [7], in [8], in assay [9], in assay [10], in assay [12] and in assay [13] was over 250 µg/mL each time. Further, in [11], the “GM (Gr.− strains): geometric mean of MIC values from all Gram-negative strains” value (“GM (Gr.− strains): geometric mean” for short) is over 250 µg/mL. The “antibacterial activity against tested microorganisms” value (from here on “antibacterial activity”) in [14] was “no antibacterial activity”. For the same molecule, the “GM (Gr.+ strains): geometric mean of MIC values from all Gram-positive strains” value (“GM (Gr.+ strains): geometric mean” below) in assay [15] is over 250 µg/mL.

With `CC(C)C[C@H](NC(=O)[C@@H](N)CCCNC(=N)N)C(=O)N[C@@H](Cc1ccccc1)C(=O)N[C@@H](CCCNC(=N)N)C(=O)N[C@@H](CCCNC(=N)N)C(=O)N[C@H](C(=O)N[C@@H](CCCCN)C(=O)N[C@@H](CCCCN)C(=O)N[C@H](C(=O)N[C@@H](C)C(=O)NCC(N)=O)C(C)C)C(C)C` [A3] (H-RLFRRVKKVAG-NH2; N-terminus assumed), the MIC in assay [1] was over 250 µg/mL; in [2] it was over 250 µg/mL; in [3] it was over 250 µg/mL; in assay [4], over 250 µg/mL; in [5] (ATCC 27853, 24 h), over 250 µg/mL; in assay [6], over 250 µg/mL. The MIC in assay [7] is over 250 µg/mL; in assay [8], over 250 µg/mL; in [9], 250 µg/mL (≈ 188 µM); in assay [10], over 250 µg/mL; in assay [12], over 250 µg/mL; in assay [13], over 250 µg/mL. Besides, the “GM (Gr.− strains): geometric mean” value in [11] is over 250 µg/mL. In assay [14], the “antibacterial activity” value is listed as “no antibacterial activity”. In [15], the “GM (Gr.+ strains): geometric mean” value is over 250 µg/mL.

Turning to `CC[C@H](C)CCCCC(=O)N[C@@H](CCN)C(=O)N[C@H](C(=O)N[C@@H](CCN)C(=O)N[C@H]1CCNC(=O)[C@H]([C@@H](C)O)NC(=O)[C@H](CCN)NC(=O)[C@H](CCN)NC(=O)[C@H](CC(C)C)NC(=O)[C@@H](CC(C)C)NC(=O)[C@H](CCN)NC1=O)[C@@H](C)O` [Colistin] (X1-[Dab]T[Dab][Dab][Dab][dL]L[Dab][Dab]T; lactam 4-C (inferred); N-terminus assumed), the MIC in assay [16] is 1.95 µg/mL (≈ 1.67 µM); in [17], 0.98 µg/mL (≈ 0.838 µM); in assay [18], 1.95 µg/mL (≈ 1.67 µM); in assay [19], 1.95 µg/mL (≈ 1.67 µM); in assay [20] it was 1.95 µg/mL (≈ 1.67 µM); in [21] it was 1.95 µg/mL (≈ 1.67 µM). In addition, the minimum inhibitory concentration (MIC) in assay [22] is 0.98 µg/mL (≈ 0.838 µM); in assay [23] it was 0.98 µg/mL (≈ 0.838 µM); in assay [24], 0.98 µg/mL (≈ 0.838 µM); in [5] (setting [30]), at most 0.98 µg/mL; in assay [25] it was 0.98 µg/mL (≈ 0.838 µM); in assay [26], 1.95 µg/mL (≈ 1.67 µM). The MIC in assay [27], in assay [28] and in assay [29] was 1.95 µg/mL (≈ 1.67 µM) each time.

As for `CC[C@H](C)[C@H](NC(=O)[C@H](CCCNC(=N)N)NC(=O)[C@H](CCCCN)NC(=O)[C@H](CCCCN)NC(=O)[C@@H](NC(=O)[C@H](CCCCN)NC(=O)[C@H](CCC(=O)O)NC(=O)[C@H](CCCCN)NC(=O)[C@@H](N)CCCNC(=N)N)[C@@H](C)CC)C(=O)NCC(=O)N[C@@H](CCCCN)C(=O)N[C@H](C(=O)N[C@@H](CC(=O)O)C(=O)N[C@@H](CCCNC(=N)N)C(=O)N[C@@H](CC(C)C)C(N)=O)[C@@H](C)CC` [P0] (H-RKEKIKKRIGKIDRL-NH2; N-terminus assumed), the MIC in assay [1] is over 250 µg/mL; in assay [2] it was over 250 µg/mL; in assay [3] it was over 250 µg/mL; in assay [4], over 250 µg/mL; in [5] (ATCC 27853, 24 h), over 250 µg/mL; in assay [6] it was over 250 µg/mL. In addition, the MIC in assay [7], in assay [8], in assay [9], in assay [10], in assay [12] and in assay [13] was over 250 µg/mL in each case. Further, the “GM (Gr.− strains): geometric mean” value in assay [11] was over 250 µg/mL. In addition, the “antibacterial activity” value in assay [14] was “no antibacterial activity”. In [15], the “GM (Gr.+ strains): geometric mean” value is over 250 µg/mL.

Consider `CC[C@H](C)[C@H](NC(=O)[C@H](CCCNC(=N)N)NC(=O)[C@H](CCCCN)NC(=O)[C@H](C)NC(=O)[C@@H](NC(=O)[C@@H](N)CCCCN)[C@@H](C)CC)C(=O)N[C@@H](Cc1c[nH]c2ccccc12)C(=O)N[C@@H](CCCCN)C(=O)N[C@H](C(=O)N[C@@H](CC(C)C)C(=O)N[C@@H](CCCNC(=N)N)C(=O)N[C@@H](CCCNC(=N)N)C(N)=O)[C@@H](C)CC` [P7] (H-KIAKRIWKILRR-NH2; N-terminus assumed), for which the MIC in [1] is 7.81 µg/mL (≈ 4.94 µM); in [4] it was 7.81 µg/mL (≈ 4.94 µM); in [5] (ATCC 27853, 24 h), 7.81 µg/mL (≈ 4.94 µM); in assay [6], over 250 µg/mL; in [7], 3.91 µg/mL (≈ 2.47 µM); in assay [8], 31.25 µg/mL (≈ 19.8 µM). For the same molecule, the MIC in [9] came out at 7.81 µg/mL (≈ 4.94 µM); in assay [10] it was 125 µg/mL (≈ 79.1 µM); in [12] it was 62.5 µg/mL (≈ 39.6 µM); in assay [13], 15.63 µg/mL (≈ 9.89 µM). Also, the “GM (Gr.− strains): geometric mean” value in assay [11] stood at 28.46 µg/mL. In addition, the “antibacterial activity” value in assay [14] is “potent antibacterial activity”. Moreover, in assay [15], the “GM (Gr.+ strains): geometric mean” value came out at 121.09 µg/mL.

Take Gentamycin: the MIC in assay [16] was over 125 µg/mL; in [17], over 125 µg/mL; in assay [18] it was over 125 µg/mL; in assay [19], over 125 µg/mL; in [20] it was 125 µg/mL; in assay [21] it was 125 µg/mL. The MIC in assay [22] is over 125 µg/mL; in [23], 125 µg/mL; in assay [24] it was over 125 µg/mL; in assay [5] (setting [30]) it was at most 0.98 µg/mL; in assay [25], over 125 µg/mL; in [26], over 125 µg/mL. Further, the MIC in assay [27], in [28] and in assay [29] was over 125 µg/mL throughout.

The MIC is the lowest concentration that inhibits growth of the organism.
